From article PMC11637875, “Discovery of novel PARP1/NRP1 dual-targeting inhibitors with strong antitumor potency” (Frontiers in Pharmacology, 2024)

How the values were obtained:
FGFR4 = FGFR4 (Homo sapiens, UniProt P22455); assay: Selectivity profile (123 kinase panel); assay type: biochemical
CHK1 = CHK1 (Homo sapiens, UniProt O14757); assay: Selectivity profile (123 kinase panel); assay type: biochemical
EPHB3 = EPHB3 (Homo sapiens, UniProt P54753); assay: Selectivity profile (123 kinase panel); assay type: biochemical
AKT2 = AKT2 (Homo sapiens, UniProt P31751); assay: Selectivity profile (123 kinase panel); assay type: biochemical
EPHB4 = EPHB4 (Homo sapiens, UniProt P54760); assay: Selectivity profile (123 kinase panel); assay type: biochemical
IGF1R = IGF1R (Homo sapiens, UniProt P08069); assay: Selectivity profile (123 kinase panel); assay type: biochemical
CK1δ = CK1δ (Homo sapiens, UniProt P48730); assay: Selectivity profile (123 kinase panel); assay type: biochemical
HUVECs = assay: Tube formation analysis; assay type: cell-based, human
Description: 50 μL of thawed Matrigel (#356234, BD Biosciences, United States) was added to a 96-well plate and incubated at 37°C for 30 min. After Matrigel gelation, HUVECs (1 × 10^5 cells/mL) were seeded into the basement membrane matrix. Each well was filled with 100 μL of cell suspension. […] Finally, five randomly selected fields per well were photographed with an inverted light microscope. The results were analyzed by ImageJ software to measure and record the number of branch points and tube length for each field. The specific steps are to download the “angiogenesis analyzer” plugin and click on ImageJ, Plugings, Macros, Install, angiogenesis analyzer in sequence. At least three parallel replicates were performed for each condition. The relative number of tubes formation was analyzed using GraphPad Prism 9 software.

MST3 = MST3 (Homo sapiens, UniProt Q9Y6E0); assay: Selectivity profile (123 kinase panel); assay type: biochemical
EPHA5 = EPHA5 (Homo sapiens, UniProt P54756); assay: Selectivity profile (123 kinase panel); assay type: biochemical
PARP9 = PARP9 (Homo sapiens, UniProt Q8IXQ6); assay: Selectivity profile (other isoforms of PARP and NRP family); assay type: biochemical
NRP1 = biological target: T1, NRP1 (Homo sapiens, UniProt O14786); assay: In vitro NRP1 inhibition assay (125I-VEGF-A binding displacement, NRP1-transfected HUVEC cells); conditions: 125I-VEGF-A165 binding competition, 2 h, 4°C
T1 construct: expressed in transfected cells; host or cells: HUVEC, adenovirus NRP1
Description: The method was performed as described previously ([Jarvis et al., 2010]). Radiolabeled binding displacement experiments were performed as described previously ([Jia et al., 2006]). Confluent adenovirus NRP1-transfected HUVEC cells in 96-well plates were washed twice with PBS. At 4°C various concentrations of compounds diluted in binding medium (Dulbecco’s modified Eagle’s medium, 25 mM HEPES, pH 7.3, containing 0.1% BSA) were added, followed by addition of the indicated concentration of ^125I-VEGF-A (1,200–1800 Ci/mmol, GE Healthcare, United Kingdom). After 2 h of incubation at 4°C, the medium was aspirated, and washed four times with cold phosphate-buffered saline. The cells were lysed with 0.25 M NaOH, 0.5% SDS solution, and the bound radioactivity of the lysates was measured. IC50 values were calculated from the competition curves of the compounds in the ^125I-VEGF-A165 binding assay using GraphPad Prism 9 software. Using log(inhibitors) vs response-Variable slope equation in the GraphPad Prism 9 to fit the curves. The equation was as follows: (Top and Bottom are the responses, respectively, at the top and bottom of the curve, Y is the inhibitory response at a given compound concentration X, and the Hillslope describes the steepness of the curve.) Y=Bottom+Top−Bottom/1+10^logIC50−xHillslope

MST1 = MST1 (Homo sapiens, UniProt Q13043); assay: Selectivity profile (123 kinase panel); assay type: biochemical
DCAMKL1 = DCAMKL1 (Homo sapiens, UniProt O15075); assay: Selectivity profile (123 kinase panel); assay type: biochemical
DYRK1A = DYRK1A (Homo sapiens, UniProt Q13627); assay: Selectivity profile (123 kinase panel); assay type: biochemical
EPHA3 = EPHA3 (Homo sapiens, UniProt P29320); assay: Selectivity profile (123 kinase panel); assay type: biochemical
PARP1 = biological target: T2, PARP1 (Homo sapiens, UniProt P09874); assay: In vitro PARP1 inhibition assay (chemiluminescence); assay type: biochemical; conditions: PARP1 enzyme 0.6 units/well
T2 construct: purchased Abcam
Description: In each well, 50 μL of 1 × PARP1 buffer was added and incubated for 30 min at room temperature. The 1 × PARP1 buffer was removed from the wells, and then 25 μL of 1 × PARP1 cocktail was added to each well along with varying doses of compounds and PARP1 enzyme (0.6 units/well). Incubated and washed twice with PBS and 0.1% Triton X-100. Then added 50 μL Strep-HRP and washed twice. Equal volumes (100 μL) of PeroxyGlow A and B were added to each well and immediately take chemiluminescent readings. Data were analyzed by GraphPad Prism 9 software based on chemiluminescence readings of chemiluminescent substrates of Strep-HRP in each well. The IC50 value was were calculated by nonlinear curve fitting in GraphPad Prism 9.

PARP14 = PARP14 (Homo sapiens, UniProt Q460N5); assay: Selectivity profile (other isoforms of PARP and NRP family); assay type: biochemical
AurA = AurA (Homo sapiens, UniProt O14965); assay: Selectivity profile (123 kinase panel); assay type: biochemical
EGFR = EGFR (Homo sapiens, UniProt P00533); assay: Selectivity profile (123 kinase panel); assay type: biochemical
NuaK1 = NuaK1 (Homo sapiens, UniProt O60285); assay: Selectivity profile (123 kinase panel); assay type: biochemical
KHS = KHS (Homo sapiens, UniProt Q9Y4K4); assay: Selectivity profile (123 kinase panel); assay type: biochemical
MRCKβ = MRCKβ (Homo sapiens, UniProt Q9Y5S2); assay: Selectivity profile (123 kinase panel); assay type: biochemical
LCK = LCK (Homo sapiens, UniProt P06239); assay: Selectivity profile (123 kinase panel); assay type: biochemical
MST2 = MST2 (Homo sapiens, UniProt Q13188); assay: Selectivity profile (123 kinase panel); assay type: biochemical
ABL1 = ABL1 (Homo sapiens, UniProt P00519); assay: Selectivity profile (123 kinase panel); assay type: biochemical
Sequence of ABL1 (P00519 whole entry): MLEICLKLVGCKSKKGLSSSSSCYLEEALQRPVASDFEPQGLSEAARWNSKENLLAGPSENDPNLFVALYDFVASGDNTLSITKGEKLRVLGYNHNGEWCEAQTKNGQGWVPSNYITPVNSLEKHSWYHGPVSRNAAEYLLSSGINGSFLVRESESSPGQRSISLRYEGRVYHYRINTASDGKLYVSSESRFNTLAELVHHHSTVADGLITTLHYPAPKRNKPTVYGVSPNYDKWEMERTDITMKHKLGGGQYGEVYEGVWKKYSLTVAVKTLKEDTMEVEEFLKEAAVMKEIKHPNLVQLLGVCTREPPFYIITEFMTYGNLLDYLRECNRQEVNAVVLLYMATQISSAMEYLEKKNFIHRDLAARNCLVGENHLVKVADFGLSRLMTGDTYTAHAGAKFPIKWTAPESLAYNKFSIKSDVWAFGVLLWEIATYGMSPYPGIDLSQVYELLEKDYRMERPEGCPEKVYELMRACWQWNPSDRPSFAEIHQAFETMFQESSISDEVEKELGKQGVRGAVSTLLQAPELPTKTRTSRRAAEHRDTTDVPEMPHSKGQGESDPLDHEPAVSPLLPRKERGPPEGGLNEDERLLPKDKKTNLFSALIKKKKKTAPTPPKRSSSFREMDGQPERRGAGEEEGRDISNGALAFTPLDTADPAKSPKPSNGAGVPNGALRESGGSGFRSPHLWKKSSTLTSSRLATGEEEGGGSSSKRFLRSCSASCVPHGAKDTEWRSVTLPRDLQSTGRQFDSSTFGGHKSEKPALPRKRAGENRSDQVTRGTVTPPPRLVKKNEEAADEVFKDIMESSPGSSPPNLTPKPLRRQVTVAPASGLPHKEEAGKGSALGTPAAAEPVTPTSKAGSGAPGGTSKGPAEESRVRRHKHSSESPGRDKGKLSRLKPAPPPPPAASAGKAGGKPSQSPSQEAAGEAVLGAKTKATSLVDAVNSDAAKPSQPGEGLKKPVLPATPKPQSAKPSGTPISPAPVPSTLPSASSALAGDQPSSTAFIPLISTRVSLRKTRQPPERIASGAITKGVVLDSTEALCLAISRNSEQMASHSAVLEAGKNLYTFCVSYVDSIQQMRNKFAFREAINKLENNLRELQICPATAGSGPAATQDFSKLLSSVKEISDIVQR

Sequence of EPHB4 (P54760 16-987, species assumed): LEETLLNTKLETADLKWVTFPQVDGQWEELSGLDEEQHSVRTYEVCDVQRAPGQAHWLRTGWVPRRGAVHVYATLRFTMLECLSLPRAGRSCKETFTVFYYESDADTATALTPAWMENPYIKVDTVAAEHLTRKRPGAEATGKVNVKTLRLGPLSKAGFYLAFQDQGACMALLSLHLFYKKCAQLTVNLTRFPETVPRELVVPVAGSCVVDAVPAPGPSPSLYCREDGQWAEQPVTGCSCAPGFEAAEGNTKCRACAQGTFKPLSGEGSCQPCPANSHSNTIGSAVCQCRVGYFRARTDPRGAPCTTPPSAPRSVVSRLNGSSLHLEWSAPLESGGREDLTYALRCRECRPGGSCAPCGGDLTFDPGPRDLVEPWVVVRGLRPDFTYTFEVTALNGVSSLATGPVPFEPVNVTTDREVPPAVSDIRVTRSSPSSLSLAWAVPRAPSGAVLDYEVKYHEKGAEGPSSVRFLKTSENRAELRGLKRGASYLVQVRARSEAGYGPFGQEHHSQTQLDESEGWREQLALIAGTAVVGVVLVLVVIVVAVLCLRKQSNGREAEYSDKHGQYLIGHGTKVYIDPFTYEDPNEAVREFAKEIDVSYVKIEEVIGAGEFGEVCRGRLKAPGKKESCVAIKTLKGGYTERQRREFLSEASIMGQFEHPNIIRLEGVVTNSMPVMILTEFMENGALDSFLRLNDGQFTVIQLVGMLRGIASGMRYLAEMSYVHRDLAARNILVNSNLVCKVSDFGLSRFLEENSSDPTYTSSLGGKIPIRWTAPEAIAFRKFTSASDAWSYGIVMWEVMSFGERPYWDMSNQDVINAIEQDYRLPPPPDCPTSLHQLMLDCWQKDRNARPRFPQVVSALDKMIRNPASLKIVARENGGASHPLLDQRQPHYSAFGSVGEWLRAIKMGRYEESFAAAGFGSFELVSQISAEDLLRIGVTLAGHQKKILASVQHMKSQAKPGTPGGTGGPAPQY
Sequence of MST2 (Q13188 whole entry): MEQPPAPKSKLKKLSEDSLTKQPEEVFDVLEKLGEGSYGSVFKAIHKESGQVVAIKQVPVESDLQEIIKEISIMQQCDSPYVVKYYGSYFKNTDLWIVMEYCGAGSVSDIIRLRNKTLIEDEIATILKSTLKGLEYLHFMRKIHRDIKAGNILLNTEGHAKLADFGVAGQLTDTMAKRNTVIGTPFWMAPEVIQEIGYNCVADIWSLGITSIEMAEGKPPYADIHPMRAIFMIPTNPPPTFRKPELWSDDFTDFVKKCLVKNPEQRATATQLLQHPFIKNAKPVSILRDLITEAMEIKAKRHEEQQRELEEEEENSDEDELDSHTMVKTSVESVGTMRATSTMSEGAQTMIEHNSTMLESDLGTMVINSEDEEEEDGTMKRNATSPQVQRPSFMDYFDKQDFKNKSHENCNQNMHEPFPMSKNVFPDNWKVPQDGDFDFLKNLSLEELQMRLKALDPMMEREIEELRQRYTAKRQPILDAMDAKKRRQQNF
Sequence of LCK (P06239 whole entry): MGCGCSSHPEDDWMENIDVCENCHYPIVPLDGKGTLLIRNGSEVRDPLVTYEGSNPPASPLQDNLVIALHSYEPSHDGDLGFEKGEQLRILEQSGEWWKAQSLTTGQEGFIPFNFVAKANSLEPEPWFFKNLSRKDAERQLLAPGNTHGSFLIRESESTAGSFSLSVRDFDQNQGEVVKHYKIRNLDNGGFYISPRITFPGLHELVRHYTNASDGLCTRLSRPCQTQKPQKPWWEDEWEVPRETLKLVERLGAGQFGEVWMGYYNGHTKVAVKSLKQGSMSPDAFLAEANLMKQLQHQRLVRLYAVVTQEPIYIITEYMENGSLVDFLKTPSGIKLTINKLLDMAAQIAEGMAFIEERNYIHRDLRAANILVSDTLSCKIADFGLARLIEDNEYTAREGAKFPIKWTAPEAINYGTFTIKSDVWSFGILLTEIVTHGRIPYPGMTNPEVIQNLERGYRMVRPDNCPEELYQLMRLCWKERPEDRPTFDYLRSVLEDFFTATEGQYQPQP
Sequence of IGF1R (P08069 31-1367): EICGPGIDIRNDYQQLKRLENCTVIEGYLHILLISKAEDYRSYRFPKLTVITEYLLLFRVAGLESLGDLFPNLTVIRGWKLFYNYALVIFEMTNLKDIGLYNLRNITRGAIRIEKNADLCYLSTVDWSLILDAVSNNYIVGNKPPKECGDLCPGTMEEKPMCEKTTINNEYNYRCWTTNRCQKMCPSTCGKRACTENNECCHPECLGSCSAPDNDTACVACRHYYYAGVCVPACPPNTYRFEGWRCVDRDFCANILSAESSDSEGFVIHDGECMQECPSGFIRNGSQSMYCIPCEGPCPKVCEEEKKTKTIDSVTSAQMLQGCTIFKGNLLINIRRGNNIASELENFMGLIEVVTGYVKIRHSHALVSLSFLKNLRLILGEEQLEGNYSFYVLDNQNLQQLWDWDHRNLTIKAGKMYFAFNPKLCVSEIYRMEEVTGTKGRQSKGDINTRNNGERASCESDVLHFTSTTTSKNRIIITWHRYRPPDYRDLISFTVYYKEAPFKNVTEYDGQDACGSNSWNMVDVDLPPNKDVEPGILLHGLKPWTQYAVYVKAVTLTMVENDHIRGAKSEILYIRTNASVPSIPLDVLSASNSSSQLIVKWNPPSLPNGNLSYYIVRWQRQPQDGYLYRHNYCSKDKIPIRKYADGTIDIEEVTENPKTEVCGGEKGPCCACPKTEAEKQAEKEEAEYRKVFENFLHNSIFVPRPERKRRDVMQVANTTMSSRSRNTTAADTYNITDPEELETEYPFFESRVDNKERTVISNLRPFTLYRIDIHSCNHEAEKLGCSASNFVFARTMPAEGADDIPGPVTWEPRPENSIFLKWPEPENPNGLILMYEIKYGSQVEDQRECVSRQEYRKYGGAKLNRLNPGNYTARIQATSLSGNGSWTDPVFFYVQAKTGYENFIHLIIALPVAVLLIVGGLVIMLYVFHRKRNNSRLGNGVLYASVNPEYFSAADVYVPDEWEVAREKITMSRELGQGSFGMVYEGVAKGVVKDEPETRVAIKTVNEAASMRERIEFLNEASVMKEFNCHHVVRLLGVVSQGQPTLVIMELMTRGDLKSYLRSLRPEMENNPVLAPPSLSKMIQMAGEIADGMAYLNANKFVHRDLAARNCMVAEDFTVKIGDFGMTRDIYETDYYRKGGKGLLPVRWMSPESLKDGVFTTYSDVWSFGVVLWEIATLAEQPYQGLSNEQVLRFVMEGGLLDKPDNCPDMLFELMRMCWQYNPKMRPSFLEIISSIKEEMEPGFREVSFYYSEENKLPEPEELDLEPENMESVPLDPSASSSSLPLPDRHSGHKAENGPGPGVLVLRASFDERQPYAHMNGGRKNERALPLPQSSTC
Sequence of MST1 (Q13043 whole entry): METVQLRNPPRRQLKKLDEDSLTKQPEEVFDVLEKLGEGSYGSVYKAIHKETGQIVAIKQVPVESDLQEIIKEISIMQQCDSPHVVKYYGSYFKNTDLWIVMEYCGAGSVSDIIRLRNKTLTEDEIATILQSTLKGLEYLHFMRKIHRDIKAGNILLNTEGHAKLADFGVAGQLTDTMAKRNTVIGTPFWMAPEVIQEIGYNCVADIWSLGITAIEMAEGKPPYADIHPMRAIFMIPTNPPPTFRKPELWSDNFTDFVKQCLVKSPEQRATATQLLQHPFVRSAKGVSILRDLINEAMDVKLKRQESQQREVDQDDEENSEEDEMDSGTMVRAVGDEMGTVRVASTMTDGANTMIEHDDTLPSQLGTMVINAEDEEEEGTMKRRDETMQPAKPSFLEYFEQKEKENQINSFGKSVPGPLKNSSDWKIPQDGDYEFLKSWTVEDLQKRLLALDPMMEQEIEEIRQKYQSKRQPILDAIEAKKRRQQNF

SMILES: NC(N)=NCCC[C@H](NCN1CCN(C(=O)c2cc(Cc3n[nH]c(=O)c4ccccc34)ccc2F)CC1)C(=O)O [PPNR-4]
- IC50 (FGFR4): > 10 µM
- IC50 (CHK1): > 10 µM
- IC50 (EPHB3): > 10 µM
- IC50 (AKT2): > 10 µM
- IC50 (EPHB4): > 10 µM
- IC50 (IGF1R): > 10 µM
- IC50 (CK1δ): > 10 µM
- tube formation (HUVECs; 2, 6, and 18 μM, compared with the control group): significantly interfered with tube formation in a dose-dependent manner
- activity at 6 µM (HUVECs; Homo sapiens, HUVEC, 8 h, 6 μM, 8 h, single replicates, read-out: Relative number of tube formations (% of control)): 6%
- activity at 18 µM (HUVECs; Homo sapiens, HUVEC, 8 h, 18 μM, 8 h, single replicates, read-out: Relative number of tube formations (% of control)): 0%
- IC50 (MST3): > 10 µM
- IC50 (EPHA5): > 10 µM
- IC50 (PARP9): > 10 µM
- IC50 (NRP1): 0.0245 ± 0.00216 µM
- IC50 (MST1): > 10 µM
- IC50 (DCAMKL1): > 10 µM
- IC50 (DYRK1A): > 10 µM
- IC50 (EPHA3): > 10 µM
- IC50 (PARP1): 0.00771 ± 0.00039 µM
- IC50 (PARP14): > 10 µM
- IC50 (AurA): > 10 µM
- IC50 (EGFR): > 10 µM
- IC50 (NuaK1): > 10 µM
- IC50 (KHS): > 10 µM
- IC50 (MRCKβ): > 10 µM
- IC50 (LCK): > 10 µM
- IC50 (MST2): > 10 µM
- IC50 (ABL1): > 10 µM
